# Assay results reported in ChEMBL document CHEMBL1201862, “PubChem BioAssay data set” (2004).
#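 Results reflect a 48-hour exposure of cells in 96-well plates to compound at five concentrations. GI50 is the concentration that inhibits growth by half.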 The source made the active and inactive calls. No stated cut-off is given here; in the data, active = GI50 up to about 1.1 µM and inactive = higher.
# Legend:
# Assay in all cases: NCI-60 cell line screen, 48 h
# KM-20L2 = tested on: KM-20L2
# SNB-78 = tested on: SNB-78
# XF498 = tested on: XF498
# LXFL 529 = tested on: LXFL 529
# RXF 631 = tested on: RXF 631
# DMS-273 = tested on: DMS-273
# M19-MEL = tested on: M19-MEL
# DLD-1 = tested on: DLD-1
# HOP-18 = tested on: HOP-18
SMILES,GI50 (KM-20L2),GI50 (SNB-78),GI50 (XF498),GI50 (LXFL 529),GI50 (RXF 631),GI50 (DMS-273),GI50 (M19-MEL),GI50 (DLD-1),GI50 (HOP-18)
CCOC(=O)C12CCCC1(O)N(NC(=O)OC)C(C)=C2C(=O)OC (stereo not given),> 100 µM (inactive),> 100 µM (inactive),> 100 µM (inactive),> 100 µM (inactive),> 100 µM (inactive),> 100 µM (inactive),> 100 µM (inactive),> 100 µM (inactive),> 100 µM (inactive)
COC(=O)C1C(=O)O[C@@H](c2ccc(OC)cc2)C1C(=O)OC (stereo not given in full),> 100 µM (inactive),,> 100 µM (inactive),> 100 µM (inactive),,> 100 µM (inactive),> 100 µM (inactive),> 100 µM (inactive),> 100 µM (inactive)
O=C1C=CC=CC2CC=C[C@@H](O)C12 (stereo not given in full),21 µM (inactive),32.4 µM (inactive),,17.5 µM (inactive),,22.6 µM (inactive),16.8 µM (inactive),25.1 µM (inactive),
O=C(Nc1c(O)[nH]c(=S)[nH]c1=O)c1ccccc1,> 100 µM (inactive),> 100 µM (inactive),,> 100 µM (inactive),,,> 100 µM (inactive),> 100 µM (inactive),> 100 µM (inactive)
CC(=O)/C=C/c1ccc(C2CC(C)=Nc3c(ccc4c3C(=O)c3ccccc3C4=O)N2)cc1 (stereo not given),> 100 µM (inactive),> 100 µM (inactive),> 100 µM (inactive),,,66.1 µM (inactive),> 62.5 µM (inactive),24.7 µM (inactive),> 80.9 µM (inactive)
O=C(O)c1ccccc1NS(=O)(=O)c1ccc([N+](=O)[O-])cc1,> 100 µM (inactive),> 100 µM (inactive),> 100 µM (inactive),> 100 µM (inactive),> 100 µM (inactive),> 100 µM (inactive),,,> 100 µM (inactive)
CCOC(=O)CCn1cnc(N)n1,> 100 µM (inactive),> 100 µM (inactive),> 100 µM (inactive),> 100 µM (inactive),> 100 µM (inactive),> 100 µM (inactive),> 100 µM (inactive),> 100 µM (inactive),> 100 µM (inactive)
O=C1Nc2ccccc2/C1=N/NC(=O)c1ccccc1O,> 100 µM (inactive),99.8 µM (inactive),,41.3 µM (inactive),,,53 µM (inactive),29.3 µM (inactive),56 µM (inactive)
O=C1CCN2C(=O)CCN12,,> 100 µM (inactive),> 100 µM (inactive),> 100 µM (inactive),,,> 100 µM (inactive),,
COc1cccc2c1[C@H]1OC(=O)NC1CCCCC2 (stereo not given in full),> 100 µM (inactive),> 100 µM (inactive),,> 100 µM (inactive),,> 100 µM (inactive),> 100 µM (inactive),> 100 µM (inactive),> 100 µM (inactive)
CCOC(=O)N1C(=O)C2C3C=CC(C2C1=O)C1C2C(=O)N(C(=O)OCC)C(=O)C2C31 (stereo not given),> 77.1 µM (inactive),> 100 µM (inactive),> 100 µM (inactive),> 100 µM (inactive),> 100 µM (inactive),> 43.7 µM (inactive),> 74.5 µM (inactive),> 87.3 µM (inactive),43.4 µM (inactive)
CC(=O)NNc1nc(C)c(C(=O)/C=C/c2ccc(Cl)cc2)s1,> 100 µM (inactive),> 100 µM (inactive),,,,> 100 µM (inactive),> 100 µM (inactive),> 100 µM (inactive),> 100 µM (inactive)
CC1=C(C)C(=O)c2c(cc3ccc4ccccc4n23)C1=O,,> 100 µM (inactive),,> 100 µM (inactive),> 100 µM (inactive),> 100 µM (inactive),> 100 µM (inactive),> 100 µM (inactive),> 100 µM (inactive)
CCCCN(CCCC)CCCn1cnc2ncccc2c1=O,> 100 µM (inactive),> 100 µM (inactive),> 100 µM (inactive),> 100 µM (inactive),,> 100 µM (inactive),> 100 µM (inactive),> 100 µM (inactive),
CC1CCP(=O)(c2ccccc2)CC1 (stereo not given),> 100 µM (inactive),> 100 µM (inactive),> 100 µM (inactive),> 100 µM (inactive),> 100 µM (inactive),> 100 µM (inactive),> 100 µM (inactive),> 100 µM (inactive),
CCOC(=O)NC(=O)c1cn(CCCO)c(=O)[nH]c1=O,> 100 µM (inactive),> 100 µM (inactive),> 100 µM (inactive),,> 100 µM (inactive),> 100 µM (inactive),> 100 µM (inactive),> 100 µM (inactive),> 100 µM (inactive)
CN(C(=O)C12C3C4C1C1C2C3C41C(O)C(C)(C)C)C(C)(C)C (stereo not given),> 100 µM (inactive),> 100 µM (inactive),> 100 µM (inactive),> 100 µM (inactive),> 100 µM (inactive),> 100 µM (inactive),> 100 µM (inactive),> 100 µM (inactive),
C/C(CCN(C)C)=N/O,8.47 µM (inactive),15.8 µM (inactive),17.8 µM (inactive),0.346 µM (active),,,0.798 µM (active),,0.4 µM (active)
COC(=O)NC(=O)c1cn(CCCOC(=O)CCCCCCCCC(=O)OCCCn2cc(C(=O)NC(=O)OC)c(=O)[nH]c2=O)c(=O)[nH]c1=O,> 100 µM (inactive),78 µM (inactive),19.3 µM (inactive),> 100 µM (inactive),50.9 µM (inactive),> 100 µM (inactive),> 100 µM (inactive),> 100 µM (inactive),> 100 µM (inactive)
CC(C)C1COC(c2ccc3ccccc3c2-c2c(O[Si](C)(C)C(C)(C)C)ccc3ccccc23)=N1 (stereo not given),19.5 µM (inactive),6.59 µM (inactive),14.5 µM (inactive),15.4 µM (inactive),14.9 µM (inactive),21.4 µM (inactive),18.8 µM (inactive),17.1 µM (inactive),
CCc1nc2cc(/N=N/c3c(O)ccc4ccccc34)ccc2[nH]1,19.6 µM (inactive),15.5 µM (inactive),,11.5 µM (inactive),,17.1 µM (inactive),18.9 µM (inactive),15 µM (inactive),
CCc1cc2c(c3[nH]ccc13)[C@@H](C)C[C@H]2C,,16.4 µM (inactive),,18 µM (inactive),,18 µM (inactive),17.2 µM (inactive),16.4 µM (inactive),18.4 µM (inactive)
CN(CCN(C)C(=O)CCOS(C)(=O)=O)C(=O)CCOS(C)(=O)=O,> 100 µM (inactive),> 100 µM (inactive),> 100 µM (inactive),> 100 µM (inactive),,74 µM (inactive),,> 100 µM (inactive),> 100 µM (inactive)
O=c1c2cc(Br)cc(Br)c2[nH]c(=S)n1-c1ccccc1,> 100 µM (inactive),> 100 µM (inactive),21.4 µM (inactive),,> 100 µM (inactive),> 100 µM (inactive),> 100 µM (inactive),> 100 µM (inactive),35.3 µM (inactive)
COc1ccc2c(CCNC(C)=O)c(C(C)=O)[nH]c2c1,> 100 µM (inactive),> 100 µM (inactive),,> 100 µM (inactive),> 100 µM (inactive),> 100 µM (inactive),,> 100 µM (inactive),
CSc1nc(NC2OCC(OC(C)=O)C(OC(C)=O)C2OC(C)=O)c2c(OC(C)=O)c(C)c(=O)oc2n1 (stereo not given),> 100 µM (inactive),> 100 µM (inactive),> 100 µM (inactive),> 100 µM (inactive),> 100 µM (inactive),,> 100 µM (inactive),> 100 µM (inactive),> 100 µM (inactive)
